Laboratory results taken from patent US9233979B2, “Compounds that are ERK inhibitors” (Merck Sharp & Dohme Corp., priority 2012, dated 2016).

Each compound was assayed against phosphorylated active hERK2 enzyme (Homo sapiens (Human), UniProt P28482) (assay: Active Human ERK2 (hERK2) Activity Assay (IMAP-FP)). Conditions: Table 6, 0.5 nM hERK2, 30 μM ATP, 10 point titration, read-out: AERK2 IC50.
Chain of phosphorylated active hERK2 enzyme (P28482 whole entry): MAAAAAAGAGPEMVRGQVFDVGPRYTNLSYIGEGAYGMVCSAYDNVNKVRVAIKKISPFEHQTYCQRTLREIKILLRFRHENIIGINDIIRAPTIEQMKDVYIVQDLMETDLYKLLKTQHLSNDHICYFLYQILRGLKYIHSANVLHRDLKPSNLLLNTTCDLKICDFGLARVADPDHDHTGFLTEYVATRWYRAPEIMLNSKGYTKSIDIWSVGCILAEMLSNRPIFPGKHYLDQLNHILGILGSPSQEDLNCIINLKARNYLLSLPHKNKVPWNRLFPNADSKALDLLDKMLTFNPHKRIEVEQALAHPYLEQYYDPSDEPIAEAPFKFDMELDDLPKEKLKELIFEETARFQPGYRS
Format: biochemical
Procedure, shortened: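 IMAP detection beads in buffer with 24 mM NaCl stopped the reaction, and fluorescence polarization was read after 60 min binding.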
For `C[C@@H](O)[C@@H](NC(=O)Nc1cc2[nH]nc(N3CCC(F)(F)CC3)c2cn1)c1ccc(F)cc1` [Example 365, 1-[3-(4,4-difluoropiperidin-1-yl)-1H-pyrazolo[4,3-c]pyridin-6-yl]-3-[(1S,2R)-1-(4-fluorophenyl)-2-hydroxypropyl]urea], the IC50 was 0.9 nM.
Compound `CC(C)(O)[C@@H](NC(=O)Nc1cc2[nH]nc(N3CCC(F)(F)CC3)c2cn1)c1ccccc1` [Example 366, 1-[3-(4,4-difluoropiperidin-1-yl)-1H-pyrazolo[4,3-c]pyridin-6-yl]-3-[(1S)-2-hydroxy-2-methyl-1-phenylpropyl]urea] has an IC50 of 0.4 nM.
Work on `CC(C)(O)[C@@H](NC(=O)Nc1cc2[nH]nc(N3CC(F)(F)C3)c2cn1)c1ccccc1` [Example 367, 1-[3-(3,3-difluoro-azetidin-1-yl)-1H-pyrazolo[4,3-c]-pyridin-6-yl]-3-[(1S)-2-hydroxy-2-methyl-1-phenylpropyl]urea] yielded an IC50 of 0.6 nM.
For `C[C@@H](NC(=O)Nc1cc2[nH]nc3c2c(n1)COC(=O)N3)c1ccccc1` [Example 368, 1-(8-oxo-2,6,8,9-tetrahydro-7-oxa-1,2,5,9-tetraazabenzo[cd]-azulen-4-yl)-3-[(1R)-1-phenylethyl]urea], the IC50 was 1.1 nM.
`COC[C@@H](NC(=O)Nc1cc2[nH]nc(Nc3cnn(C)c3)c2cn1)c1ccccc1` [Example 370, 1-[(1S)-2-methoxy-1-phenylethyl]-3-{3-[(1-methyl-1H-pyrazol-4-yl)-amino]-1H-pyrazolo[4,3-c]-pyridin-6-yl}urea] was tested, and the IC50 was 19.7 nM.
`COCCNc1n[nH]c2cc(NC(=O)N[C@H](COC)c3ccccc3)ncc12` [Example 371, 1-{3-[(2-methoxy-ethyl)amino]-1H-pyrazolo[4,3-c]-pyridin-6-yl}-3-[(1S)-2-methoxy-1-phenylethyl]urea] showed an IC50 of 0.7 nM.
Compound `COC[C@@H](NC(=O)Nc1cc2[nH]nc(Nc3cnn(C)c3)c2cn1)c1ccc(F)cc1` [Example 372, 1-[(1S)-1-(4-fluorophenyl)-2-methoxyethyl]-3-{3-[(1-methyl-1H-pyrazol-4-yl)-amino]-1H-pyrazolo[4,3-c]-pyridin-6-yl}urea] has an IC50 of 14.7 nM.
For `COCCNc1n[nH]c2cc(NC(=O)N[C@H](C)c3ccc(F)cc3)ncc12` [Example 374, 1-[(1R)-1-(4-fluorophenyl)ethyl]-3-{3-[(2-methoxy-ethyl)amino]-1H-pyrazolo[4,3-c]-pyridin-6-yl}urea], the IC50 was 2.8 nM.
For `Nc1n[nH]c2cc(NC(=O)N[C@H](CO)c3ccccc3)ncc12` [Example 375, 1-(3-amino-1H-pyrazolo[4,3-c]-pyridin-6-yl)-3-[(1S)-2-hydroxy-1-phenylethyl]urea], the IC50 was 2.5 nM.
`C[C@@H](NC(=O)Nc1cc2[nH]nc(N3CC4C5CCC(C)(O5)C4C3)c2cn1)c1ccc(F)cc1` (stereo partly drawn) [Example 376, 1-[(1R)-1-(4-fluorophenyl)ethyl]-3-[3-(4-methyl-octahydro-2H-4,7-epoxyisoindol-2-yl)-1H-pyrazolo[4,3-c]-pyridin-6-yl]urea] was tested, and the IC50 was 13.8 nM.
`CC12CCC(O1)C1CN(c3n[nH]c4cc(NC(=O)N[C@@H](c5ccc(F)cc5)C(C)(C)O)ncc34)CC12` (stereo partly drawn) [Example 377, 1-[(1S)-1-(4-fluorophenyl)-2-hydroxy-2-methyl-propyl]-3-[3-(4-methyloctahydro-2H-4,7-epoxyisoindo1-2-yl)-1H-pyrazolo[4,3-c]-pyridin-6-yl]urea] gave an IC50 of 2.3 nM.
`C[C@@H](NC(=O)Nc1cc2[nH]nc(Nc3ccccc3)c2cn1)c1ccccc1` [Example 379, 1-[3-(phenyl-amino)-1H-pyrazolo[4,3-c]-pyridin-6-yl]-3-[(1R)-1-phenylethyl]urea] gave an IC50 of 127 nM.
In the case of `C[C@@H](NC(=O)Nc1cc2[nH]nc(Nc3ccc(C#N)nc3)c2cn1)c1ccccc1` [Example 381, 1-{3-[(6-cyanopyridin-3-yl)amino]-1H-pyrazolo[4,3-c]-pyridin-6-yl}-3-[(1R)-1-phenylethyl]urea], the IC50 is reported as 367 nM.
With `C[C@@H](NC(=O)Nc1cc2[nH]nc(Nc3ccc(F)nc3)c2cn1)c1ccccc1` [Example 382, 1-{3-[(6-fluoropyridin-3-yl)amino]-1H-pyrazolo[4,3-c]-pyridin-6-yl}-3-[(1R)-1-phenylethyl]urea] the IC50 was 72.1 nM.
In the case of `COC[C@@H](NC(=O)Nc1cc2[nH]nc(Nc3ccccc3C#N)c2cn1)c1ccccc1` [Example 383, 1-{3-[(2-cyanophenyl)amino]-1H-pyrazolo[4,3-c]pyridin-6-yl}-3-[(1S)-2-methoxy-1-phenylethyl]urea], the IC50 is reported as 2280 nM.
In the case of `COC[C@@H](NC(=O)Nc1cc2[nH]nc(Nc3ccccc3F)c2cn1)c1ccccc1` [Example 384, 1-{3-[(2-fluoro-phenyl)amino]-1H-pyrazolo[4,3-c]-pyridin-6-yl}-3-[(1S)-2-methoxy-1-phenylethyl]urea], the IC50 is reported as 9.4 nM.
Work on `COC(=O)Nc1n[nH]c2cc(NC(=O)N[C@@H](c3ccccc3)C3(O)CCC3)ncc12` [Example 385, methyl [6-({[(S)-(1-hydroxycyclo-butyl)(phenyl)-methyl]carbamoyl}amino)-1H-pyrazolo[4,3-c]-pyridin-3-yl]-carbamate] yielded an IC50 of 2 nM.
`COC(=O)Nc1n[nH]c2cc(NC(=O)N[C@@H](c3ccc(F)cc3)C3(O)CCC3)ncc12` [Example 386, methyl [6-({[(S)-(4-fluorophenyl)(1-hydroxycyclobutyl)methyl]carbamoyl}amino)-1H-pyrazolo[4,3-c]-pyridin-3-yl]-carbamate] showed an IC50 of 0.4 nM.
With `C[C@@H](O)[C@@H](NC(=O)Nc1cc2[nH]nc(N3CCc4ncsc4C3)c2cn1)c1ccccc1` [Example 387, 1-[3-(6,7-dihydro[1,3]-thiazolo[5,4-c]-pyridin-5(4H)-yl)-1H-pyrazolo[4,3-c]pyridin-6-yl]-3-[(1S,2R)-2-hydroxy-1-phenylpropyl]urea] the IC50 was 0.5 nM.
In the case of `C[C@H](O)[C@@H](NC(=O)Nc1cc2[nH]nc(N3CCc4ncsc4C3)c2cn1)c1ccccc1` [Example 388, 1-[3-(6,7-dihydro[1,3]-thiazolo[5,4-c]pyridin-5(4H)-yl)-1H-pyrazolo[4,3-c]-pyridin-6-yl]-3-[(1S,2S)-2-hydroxy-1-phenylpropyl]urea], the IC50 is reported as 34.6 nM.
`COC(=O)Nc1n[nH]c2cc(NC(=O)N[C@@H](c3ccccc3)C(C)(C)O)ncc12` [Example 389, methyl [6-({[(1S)-2-hydroxy-2-methyl-1-phenyl-propyl]carbamoyl}amino)-1H-pyrazolo[4,3-c]-pyridin-3-yl]-carbamate] gave an IC50 of 0.4 nM.
`COC(=O)Nc1n[nH]c2cc(NC(=O)N[C@@H](c3ccc(F)cc3)C(C)(C)O)ncc12` [Example 390, methyl [6-({[(1S)-1-(4-fluorophenyl)-2-hydroxy-2-methylpropyl]-carbamoyl}amino)-1H-pyrazolo[4,3-c]pyridin-3-yl]-carbamate] was tested, and the IC50 was 0.5 nM.
`C[C@@H](NC(=O)Nc1cc2[nH]nc(N3CCc4nn(C)cc4C3)c2cn1)c1ccc(F)cc1` [Example 391, 1-[(1R)-1-(4-fluorophenyl)ethyl]-3-(2′-methyl-2′,4′,6′,7′-tetrahydro-1H-3,5′-bipyrazolo[4,3-c]-pyridin-6-yl)urea] showed an IC50 of 0.4 nM.
`COC(=O)Nc1n[nH]c2cc(NC(=O)NC(c3ccc(Cl)c(Cl)c3)c3cnco3)ncc12` (stereo not drawn) [Example 392, methyl [6-({[(3,4-dichlorophenyl)(1,3-oxazol-5-yl)-methyl]carbamoyl}amino)-1H-pyrazolo[4,3-c]-pyridin-3-yl]-carbamate] was tested, and the IC50 was 2.6 nM.
`C[C@@H](O)[C@@H](NC(=O)Nc1cc2[nH]nc(N3CCc4nn(C)cc4C3)c2cn1)c1ccccc1` [Example 393, 1-[(1S,2R)-2-hydroxy-1-phenylpropyl]-3-(2′-methyl-2′,4′,6′,7′-tetrahydro-1H-3,5′-bipyrazolo[4,3-c]-pyridin-6-yl)urea] showed an IC50 of 0.4 nM.
`COC(=O)Nc1n[nH]c2cc(NC(=O)N[C@H]3c4ccccc4OCC[C@H]3O)ncc12` [Example 394, methyl [6-({[(4R,5S)-4-hydroxy-2,3,4,5-tetrahydro-1-benzoxepin-5-yl]-carbamoyl}amino)-1H-pyrazolo[4,3-c]pyridin-3-yl]-carbamate] was tested, and the IC50 was 0.3 nM.
Work on `CC(=O)Nc1n[nH]c2cc(NC(=O)N[C@@H](c3ccc(F)cc3)C(C)(C)O)ncc12` [Example 395, N-[6-({[(1S)-1-(4-fluorophenyl)-2-hydroxy-2-methylpropyl]-carbamoyl}amino)-1H-pyrazolo[4,3-c]-pyridin-3-yl]-acetamide] yielded an IC50 of 0.6 nM.
Work on `O=C(Nc1cc2[nH]nc(NC(=O)N3CC(F)(F)C3)c2cn1)N[C@H]1c2ccccc2OCC[C@H]1O` [Example 396] yielded an IC50 of 0.3 nM.
Work on `O=C(Nc1cc2[nH]nc(NC(=O)N3CC(F)(F)C3)c2cn1)N[C@@H]1CCCOc2ccccc21` [Example 397, 3,3-difluoro-N-(6-{[(5R)-2,3,4,5-tetrahydro-1-benzoxepin-5-yl-carbamoyl]amino}-1H-pyrazolo[4,3-c]pyridin-3-yl)-azetidine-1-carboxamide] yielded an IC50 of 4.4 nM.
For `CC(C)OC(=O)Nc1n[nH]c2cc(NC(=O)N[C@H](C)c3ccc(F)cc3)ncc12` [Example 398, 1-methylethyl [6-({[(1R)-1-(4-fluorophenyl)ethyl]carbamoyl}amino)-1H-pyrazolo[4,3-c]pyridin-3-yl]-carbamate], the IC50 was 52.5 nM.
`C[C@@H](NC(=O)Nc1cc2[nH]nc(NC(=O)OC3CCOCC3)c2cn1)c1ccc(F)cc1` [Example 399, tetrahydro-2H-pyran-4-yl [6-({[(1R)-1-(4-fluorophenyl)ethyl]carbamoyl}amino)-1H-pyrazolo[4,3-c]pyridin-3-yl]-carbamate] was tested, and the IC50 was 19.7 nM.
`CC(C)(O)[C@@H](NC(=O)Nc1cc2[nH]nc(NC(=O)OC3CCOCC3)c2cn1)c1ccc(F)cc1` [Example 400, tetrahydro-2H-pyran-4-yl [6-({[(1S)-1-(4-fluorophenyl)-2-hydroxy-2-methylpropyl]-carbamoyl}amino)-1H-pyrazolo[4,3-c]pyridin-3-yl]-carbamate] was tested, and the IC50 was 1.6 nM.
`C[C@@H](NC(=O)Nc1cc2[nH]nc(NC(=O)OC3CCOC3)c2cn1)c1ccc(F)cc1` (stereo partly drawn) [Example 401, tetrahydrofuran-3-yl [6-({[(1R)-1-(4-fluorophenyl)ethyl]carbamoyl}amino)-1H-pyrazolo[4,3-c]pyridin-3-yl]-carbamate] was tested, and the IC50 was 15.3 nM.
